Molecules are shown by their SMILES. Read-outs that look alike come from different tables or passages of the source. *1 amine or outer side, *2 acyl side, *3 side chain or, on linkers, in order; H or OH if unused. Where a SMILES comes first, the peptide text is derived from it. Bridges are numbered along the chain shown (N, C = ends). [ ]: non-standard residue; d: D form. The star is where a group is joined. dNMeaIle = CC[C@H](C)[C@@H](NC)C(=O)O; d(aIle) = CC[C@H](C)[C@@H](N)C(=O)O; NMeI = CC[C@H](C)[C@H](NC)C(=O)O; NMeβAla = CN(CCC(=O)[*:2])[*:1]; dNMeL = CN[C@H](CC(C)C)C(=O)O; dNMeV = CN[C@@H](C(=O)O)C(C)C; NMeV = CN[C@H](C(=O)O)C(C)C; Methoxyacetyl = COCC(=O)*; NMeA = CN[C@@H](C)C(=O)O; βAla = NCCC(=O)O

The subject of experiment [1] is Bacillus cereus NBRC 15305. The protocol:
(§1) Previously, three theonellapeptolide members capped with a unique acyl group at their N-termini such as methylsulfinylacetyl, methylsulfanylacetyl, and acetyl were isolated by Tsuda et al. from Okinawan marine sponge Theonella sp.. Furthermore, the antibacterial activity of these variants was evaluated against four bacterial and six fungal strains. […] To the best of our knowledge, there is no report on the antibacterial activity of theonellapeptolides with methoxyacetyl group. This encouraged us to investigate the antibacterial activity of 1–6 against the Gram-negative bacterium Escherichia coli JW5503 and the Gram-positive bacteria Bacillus cereus NBRC 15305 and Kocuria rhizophila NBRC 12708.
(§2) After incubation for 22 h (30 °C), the obtained optical density was recorded using Tecan infinite® M200 plate reader at 600 nm to determine percent growth inhibition.

The subject of another experiment is Escherichia coli JW5503. The protocol: as §1, §2
Experiment [2] concerns Kocuria rhizophila NBRC 12708. The protocol:
as §1, §2

In experiment [3] the test system is HepG2 (human liver cancer cells). As to conditions: 24 h. The protocol: (§3) Finally, the anti-austerity activity on two other different cancer cell lines was studied. Preferential cytotoxicity was assessed in a nutrient-deprived medium. Esumi et al. hypothesized that tolerance to nutrient deprivation as well as angiogenesis might be an important factor in tumor progression under hypovascular condition.
(§4) Briefly, MIA PaCa-2, HepG2 and MCF-7 Cells (2 × 10^4 cells/well) were seeded in 96-well plates and incubated in fresh DMEM. The cells were washed with Dulbecco’s phosphate-buffered saline (PBS) before the medium was replaced with DMEM or NDM containing serial dilutions of the test samples. After 24 h of incubation, the cells were washed with PBS, and 100 μL of DMEM containing 10% WST-8 cell counting kit solution was added to each well. After 3 h of incubation, the absorbance was measured at 450 nm. Cell viability was calculated from the mean values for three wells. The preferential cytotoxicity was expressed as the concentration at which 50% of cells died preferentially in NDM (PC50).

In experiment [4] the test system is MCF-7 (human breast cancer cells). As to conditions: 24 h. The protocol: as §3, §4
The test system of experiment [5] is human pancreatic cancer cell line MIA PaCa-2. As to conditions: 24 h. The protocol: Data are presented as preferential cytotoxicity (PC50) values, which represent the concentration that kills 50% of cancer cells in a nutrient-deprived medium (NDM) without any toxicity in a nutrient-rich medium DMEM (Dulbecco’s Modified Eagle Medium).
as §4
Pancreatic cancer cells (MIA PaCa-2 cells) were kindly provided by Dr. Suresh Awale, an Associate Professor at Institute of Natural Medicine, University Toyama, Toyama, Japan. MIA PaCa-2 (RBRC-RCB2094), human pancreatic cancer cell lines were purchased from Riken BRC cell bank.

Where [6] appears, read: Escherichia coli JW5503, 96-well microbroth dilution (CLSI), triplicate, 22 h, 30 °C, OD 600 nm.
Where [7] appears, read: read-out: IC50 in DMEM, HepG2, nutrient-rich DMEM, WST-8, absorbance 450 nm, mean of three wells.
[8] abbreviates: read-out: PC50 in NDM, HepG2, preferential cytotoxicity, nutrient-deprived medium (NDM), WST-8, mean of three wells.
Setting [9] is: read-out: IC50 in DMEM, MCF7, nutrient-rich DMEM, WST-8, absorbance 450 nm, mean of three wells.
Setting [10] is: read-out: PC50 in NDM, MCF7, preferential cytotoxicity, nutrient-deprived medium (NDM), WST-8, mean of three wells.
The mark [11] stands for this setting: read-out: IC50 in DMEM, MIA PaCa-2, nutrient-rich DMEM, WST-8, absorbance 450 nm, mean of three wells.
[12] abbreviates: read-out: PC50 in NDM, MIA PaCa-2, preferential cytotoxicity, nutrient-deprived medium (NDM), WST-8, mean of three wells.
The mark [13] stands for this setting: Bacillus cereus NBRC 15305, 96-well microbroth dilution (CLSI), triplicate, 22 h, 30 °C, OD 600 nm.
Where [14] appears, read: Kocuria rhizophila NBRC 12708, 96-well microbroth dilution (CLSI), triplicate, 22 h, 30 °C, OD 600 nm.

In the case of `CC[C@H](C)[C@H]1NC(=O)CCNC(=O)[C@@H](C(C)C)N(C)C(=O)[C@@H](CC(C)C)NC(=O)CCNC(=O)[C@@H](NC(=O)[C@@H](CC(C)C)N(C)C(=O)[C@@H](NC(=O)COC)C(C)C)[C@@H](C)OC(=O)[C@@H]([C@@H](C)CC)N(C)C(=O)[C@@H](CC(C)C)NC(=O)CCNC(=O)[C@H](C)NC(=O)[C@H](C(C)C)N(C)C1=O` [Compound 1, theonellapeptolide IIb] (Methoxyacetyl-V[dNMeL]T[βAla][dL][dNMeV][βAla][d(aIle)][NMeV]A[βAla][dL][dNMeaIle]; ester 3-C), the “MIC, BC” value in experiment [1] (NBRC 15305, 22 h) is listed as > 66 µM. For the same compound, in the experiment with Escherichia coli JW5503 (setting [6]), the “MIC, EC” value was > 66 µM. Further, the “MIC, KR” value in experiment [2] (NBRC 12708, 22 h) was > 66 µM. Moreover, the IC50 was > 100 µM in experiment [3] (setting [7]); > 100 µM in experiment [3] (setting [8]); > 100 µM in experiment [4] (setting [9]); > 100 µM in experiment [4] (setting [10]); > 100 µM in experiment [5] (setting [11]); 42.8 µM in experiment [5] (setting [12]).
As for `CC[C@H](C)[C@H]1NC(=O)CCNC(=O)[C@@H](C(C)C)NC(=O)[C@@H](CC(C)C)NC(=O)CCNC(=O)[C@@H](NC(=O)[C@@H](CC(C)C)N(C)C(=O)[C@@H](NC(=O)COC)C(C)C)[C@@H](C)OC(=O)[C@@H]([C@@H](C)CC)N(C)C(=O)[C@@H](CC(C)C)NC(=O)CCNC(=O)[C@H](C)NC(=O)[C@H](C(C)C)N(C)C1=O` [Compound 2, theonellapeptolide IIa] (Methoxyacetyl-V[dNMeL]T[βAla][dL][dV][βAla][d(aIle)][NMeV]A[βAla][dL][dNMeaIle]; ester 3-C), the “MIC, BC” value in experiment [1] (setting [13]) is given as > 66 µM. For the same compound, the “MIC, EC” value in the experiment on Escherichia coli JW5503 (setting [6]) is reported as > 66 µM. The “MIC, KR” value in experiment [2] (setting [14]) was > 66 µM. In addition, the IC50 in experiment [3] (setting [7]) was > 100 µM; in experiment [3] (setting [8]) it was > 100 µM; in experiment [4] (setting [9]), > 100 µM; in experiment [4] (setting [10]) it was > 100 µM; in experiment [5] (setting [11]), > 100 µM; in experiment [5] (setting [12]), 33.4 µM.
In the case of `CC[C@H](C)[C@H]1NC(=O)CCNC(=O)[C@H](C(C)C)N(C)C(=O)[C@@H](CC(C)C)NC(=O)CCN(C)C(=O)[C@@H](NC(=O)[C@@H](CC(C)C)N(C)C(=O)[C@@H](NC(=O)COC)C(C)C)[C@@H](C)OC(=O)[C@@H]([C@@H](C)CC)N(C)C(=O)[C@@H](CC(C)C)NC(=O)CCNC(=O)[C@H](C)NC(=O)[C@H](C(C)C)N(C)C1=O` [Compound 3, theonellapeptolide IIc] (Methoxyacetyl-V[dNMeL]T[NMeβAla][dL][NMeV][βAla][d(aIle)][NMeV]A[βAla][dL][dNMeaIle]; ester 3-C), the “MIC, BC” value in experiment [1] (setting [13]) is on record as > 66 µM. Moreover, the “MIC, EC” value with Escherichia coli JW5503 (setting [6]) is reported as > 66 µM. The “MIC, KR” value in experiment [2] (setting [14]) is > 66 µM. In addition, the IC50 was > 100 µM in experiment [3] (setting [7]); > 100 µM in experiment [3] (setting [8]); > 100 µM in experiment [4] (setting [9]); > 100 µM in experiment [4] (setting [10]); 73.2 µM in experiment [5] (setting [11]); 10 µM in experiment [5] (setting [12]).
Take `CC[C@H](C)[C@H]1C(=O)NCCC(=O)N[C@H]([C@@H](C)CC)C(=O)N(C)[C@@H](C(C)C)C(=O)N[C@@H](C)C(=O)NCCC(=O)N[C@H](CC(C)C)C(=O)N(C)[C@H]([C@@H](C)CC)C(=O)O[C@H](C)[C@H](NC(=O)[C@@H](CC(C)C)N(C)C(=O)[C@@H](NC(=O)COC)C(C)C)C(=O)N(C)CCC(=O)N[C@H](CC(C)C)C(=O)N1C` [Compound 5, theonellapeptolide IIe] (Methoxyacetyl-V[dNMeL]T[NMeβAla][dL][NMeI][βAla][d(aIle)][NMeV]A[βAla][dL][dNMeaIle]; ester 3-C): in experiment [1] (NBRC 15305, 22 h), the “MIC, BC” value is on record as > 66 µM. Also, in the experiment with Escherichia coli JW5503 (JW5503, 22 h), the “MIC, EC” value is on record as > 66 µM. The “MIC, KR” value in experiment [2] (NBRC 12708, 22 h) is listed as > 66 µM. For the same compound, the IC50 in experiment [3] (setting [7]) was > 100 µM; in experiment [3] (setting [8]), > 100 µM; in experiment [4] (setting [9]) it was > 100 µM; in experiment [4] (setting [10]), > 100 µM; in experiment [5] (setting [11]), 40.4 µM; in experiment [5] (setting [12]), 3.5 µM.
`CC[C@H](C)[C@H]1C(=O)NCCC(=O)N[C@H]([C@@H](C)CC)C(=O)N(C)[C@@H](C(C)C)C(=O)N(C)[C@@H](C)C(=O)NCCC(=O)N[C@H](CC(C)C)C(=O)N(C)[C@H]([C@@H](C)CC)C(=O)O[C@H](C)[C@H](NC(=O)[C@@H](CC(C)C)N(C)C(=O)[C@@H](NC(=O)COC)C(C)C)C(=O)NCCC(=O)N[C@H](CC(C)C)C(=O)N1C` [Compound 6, theonellapeptolide Id] (Methoxyacetyl-V[dNMeL]T[βAla][dL][NMeI][βAla][d(aIle)][NMeV][NMeA][βAla][dL][dNMeaIle]; ester 3-C): the “MIC, BC” value in experiment [1] (NBRC 15305, 22 h) is listed as > 66 µM. In addition, the “MIC, EC” value against Escherichia coli JW5503 (JW5503, 22 h) is > 66 µM. In addition, the “MIC, KR” value in experiment [2] (NBRC 12708, 22 h) is > 66 µM. Further, the IC50 is > 100 µM in experiment [3] (setting [7]); > 100 µM in experiment [3] (setting [8]); > 100 µM in experiment [4] (setting [9]); > 100 µM in experiment [4] (setting [10]); 42.7 µM in experiment [5] (setting [11]); 8.2 µM in experiment [5] (setting [12]).

These data come from article PMC9697519, “New Theonellapeptolides from Indonesian Marine Sponge Theonella swinhoei as Anti-Austerity Agents” (Marine Drugs, 2022).
